Experimental findings from PMC6302903, “Protein and Chemical Determinants of BL-1249 Action and Selectivity for K2P Channels” (ACS Chemical Neuroscience, 2018) are described below.

In one experiment the target is T1, K2P9.1(TASK-3) (Mus musculus, UniProt Q3LS21).
T1 construct: expressed in transfected cells; host or cells: Xenopus laevis oocytes (mRNA injection, pGEMHE/pMO)
Description: TEVC of K2P9.1(TASK-3) in Xenopus oocytes. Particulars: concentrations up to the solubility limit (∼80 μM). The class given is cell-based. The protocol:
BL-1249 activates K2P2.1(TREK-1)[18],[40] and K2P10.1(TREK-2),[7] but its effects on other K2P channels have not been characterized. […] In order to test if the original 10 μM assay had missed BL-1249 effects in other K2P channels, we tested concentrations of BL-1249 up to the solubility limit (∼80 μM) against the other K2P subfamily representatives. […]
Xenopus laevis oocytes were harvested in accordance with UCSF IACUC protocol AN129690 and digested in calcium-free ND-96 (96 mM NaCl, 2 mM KCl, 3.8 mM MgCl2) immediately following harvest, as previously described.[6],[10] […] Defolliculated stage V–VI oocytes were injected with 0.2–6.0 ng of mRNA in 50 nL, and currents were recorded 24–48 h after injection. mRNA was synthesized from plasmid DNA using mMessage mMachine Kit (T7 promoter, Ambion, Life Technologies) and purified using RNEasy Kit (Qiagen). […] Once stabilized basal currents were recorded, compounds were perfused at various concentrations in standard ND96 and currents were allowed to increase to stabilization before recording final current. Fold activation upon compound application is expressed as I/I0 (0 mV), derived from the current at 0 mV in the presence of compound divided by the basal current at 0 mV in standard ND96 without compound. Data were analyzed and plotted using Graphpad Prism Version 5 (GraphPad Software, San Diego California USA, www.graphpad.com). […]

Another experiment concerns the target TREK-1/AAK M2-C (Mus musculus, UniProt O88454+P97438). Nature of the experiment: TEVC of chimera TREK-1/AAK M2-C. The class given is cell-based. To be noted: Xenopus oocytes.

TREK-1/AAK M2-C, sequence (P97438 16-167): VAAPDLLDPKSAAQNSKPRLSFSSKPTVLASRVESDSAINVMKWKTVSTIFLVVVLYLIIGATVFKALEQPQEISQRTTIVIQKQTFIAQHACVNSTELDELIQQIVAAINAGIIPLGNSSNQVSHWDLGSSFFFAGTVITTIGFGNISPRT
TREK-1/AAK M2-C, sequence (O88454 115-398): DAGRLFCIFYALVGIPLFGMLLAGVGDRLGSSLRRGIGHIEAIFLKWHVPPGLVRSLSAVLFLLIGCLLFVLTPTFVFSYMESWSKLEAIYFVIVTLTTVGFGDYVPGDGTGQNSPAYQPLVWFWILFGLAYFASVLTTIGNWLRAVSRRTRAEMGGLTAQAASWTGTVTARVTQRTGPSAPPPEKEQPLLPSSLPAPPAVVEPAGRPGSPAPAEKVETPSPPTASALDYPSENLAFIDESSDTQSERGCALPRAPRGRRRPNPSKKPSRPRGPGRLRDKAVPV
T1 sequence (Q3LS21 whole entry): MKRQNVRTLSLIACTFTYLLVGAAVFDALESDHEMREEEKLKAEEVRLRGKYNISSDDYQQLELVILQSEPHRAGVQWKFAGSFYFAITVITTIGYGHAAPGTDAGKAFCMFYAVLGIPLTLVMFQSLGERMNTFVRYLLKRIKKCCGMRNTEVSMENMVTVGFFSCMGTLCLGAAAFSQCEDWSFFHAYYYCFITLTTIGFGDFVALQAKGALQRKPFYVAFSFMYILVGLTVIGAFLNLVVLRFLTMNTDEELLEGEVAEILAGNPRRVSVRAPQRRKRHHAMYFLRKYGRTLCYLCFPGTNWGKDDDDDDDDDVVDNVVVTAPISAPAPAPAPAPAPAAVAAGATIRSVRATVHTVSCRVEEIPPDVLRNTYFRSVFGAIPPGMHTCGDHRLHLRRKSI

Turning to `c1ccc(-c2nnn[nH]2)c(Nc2cccc3c2CCCC3)c1` [BL-1249, (5,6,7,8-tetrahydro-naphthalen-1-yl)-[2-(1H-tetrazol-5-yl)-phenyl]-amine], the “activation of K2P9.1(TASK-3)” value on K2P9.1(TASK-3) was “failed to find evidence for activation”. Consider `CS(=O)(=O)Nc1ccc(C(=O)NCc2ccc(Cl)cc2Cl)cc1` [ML335], for which the EC50 on TREK-1/AAK M2-C was over 100 µM.

What is called EC50 is the concentration giving half of the maximal effect. Higher therefore signals weaker potency.
